In patent EP4282435A1, “FORMULATIONS OF ACTIVE PHARMACEUTICAL INGREDIENTS AND EXCIPIENTS IN ICELLS VIA HYDROPHOBIC ION PAIRING” (Danmarks Tekniske Universitet, priority 2022, dated 2023):
Where a name gives a salt, the structure may show the parent alone. Read-outs that look alike come from different tables or passages of the source.

What was measured:
[1] = Protocol: After removing the supernatant, the complex was dissolved in methanol, transferred to a new glass vial and the solvent was dried under a gentle nitrogen flow. […] ICell was proportionally added to a vial containing Abaloparatide in its native form to achieve a final Abaloparatide concentration of 1 mg/g. Abaloparatide-HIP complexes were pre-dissolved in DMSO (corresponding to 5% weight of the final formulation), followed by the proportional addition of ICell to obtain a final Abaloparatide concentration of 1 mg/g.
[2] = SuBen:GTH:DMSO (60:15:25) ICell, visual
[3] = tested on: S. aureus strain S54F9; experiment: Microbiological assay, Disc Diffusion Assay; assay type: cell-based, Staphylococcus aureus; conditions: Example 24, wells: 0.5 mg linoleic acid in DMSO; 0.5 mg vancomycin hydrochloride; 45 µl HIP complex + 45 µl PBS; 24 hours at 37 °C
Protocol: Then, 3 wells were carved out with the use of the broad side of an autoclaved 1 ml pipette tip.
This setup was repeated for three experimental replicates. Each plate was incubated for 24 hours at 37 °C, before inspection.
Then, 3 wells were carved out with the use of the broad side of an autoclaved 1 ml pipette tip. In one well, 0.5 mg linoleic acid was injected as 90 µl 0.22 µm-sterile-filtered dimethyl sulfoxide. In a second well, 90 µl autoclaved phosphate-buffered saline with 0.5 mg vancomycin hydrochloride was injected. […] The plate was incubated for 24 hours at 37 °C, before inspection.

| Compound | solubility in ICell [1] | solubility in ICell [2] | antimicrobial activity (clearance of S. aureus) [3] |
| --- | --- | --- | --- |
| CC[C@H](C)[C@H](NC(=O)[C@H](CO)NC(=O)[C@H](CCCCN)NC(=O)CNC(=O)[C@H](CCCCN)NC(=O)[C@H](CC(=O)O)NC(=O)[C@H](Cc1cnc[nH]1)NC(=O)[C@H](CC(C)C)NC(=O)[C@H](CC(C)C)NC(=O)[C@H](CCC(N)=O)NC(=O)[C@H](Cc1cnc[nH]1)NC(=O)[C@H](CCC(=O)O)NC(=O)[C@H](CO)NC(=O)[C@@H](NC(=O)[C@H](C)N)C(C)C)C(=O)N[C@@H](CCC(N)=O)C(=O)N[C@@H](CC(=O)O)C(=O)N[C@@H](CC(C)C)C(=O)N[C@@H](CCCNC(=N)N)C(=O)N[C@@H](CCCNC(=N)N)C(=O)N[C@@H](CCCNC(=N)N)C(=O)N[C@@H](CCC(=O)O)C(=O)N[C@@H](CC(C)C)C(=O)N[C@@H](CC(C)C)C(=O)N[C@@H](CCC(=O)O)C(=O)N[C@@H](CCCCN)C(=O)N[C@@H](CC(C)C)C(=O)N[C@@H](CC(C)C)C(=O)NC(C)(C)C(=O)N[C@@H](CCCCN)C(=O)N[C@@H](CC(C)C)C(=O)N[C@@H](Cc1cnc[nH]1)C(=O)N[C@H](C(=O)N[C@@H](C)C(N)=O)[C@@H](C)O [Abaloparatide] | insoluble | – | – |
| CN[C@H](CC(C)C)C(=O)N[C@H]1C(=O)N[C@@H](CC(N)=O)C(=O)N[C@H]2C(=O)N[C@H]3C(=O)N[C@H](C(=O)N[C@H](C(=O)O)c4cc(O)cc(O)c4-c4cc3ccc4O)[C@H](O)c3ccc(c(Cl)c3)Oc3cc2cc(c3O[C@@H]2O[C@H](CO)[C@@H](O)[C@H](O)[C@H]2O[C@H]2C[C@](C)(N)[C@H](O)[C@H](C)O2)Oc2ccc(cc2Cl)[C@H]1O [Vancomycin hydrochloride] | – | not dissolvable | clearance of S. aureus bacteria |
